From US6573262B2, “Composition and antiviral activity of substituted indoleoxoacetic piperazine derivatives” (priority 2000, dated 2003)

System: HIV-1 single-round infectious reporter virus
Assay: microbe, parasite or virus in culture
Format: cell-based
Settings: for EC50: Human immunodeficiency virus 1, HeLa-CD4/CCR5, 72 h, read-out: EC50 Group from Table 1; for inhibition at 10 µM: Human immunodeficiency virus 1, HeLa-CD4/CCR5, read-out: % Inhibition @ 10 uM

Row | SMILES | EC50 [nM] | inhibition at 10 µM [%]
1 | Nc1nc(-c2ccc(F)c3c(C(=O)C(=O)N4CCN(C(=O)c5ccccc5)CC4)c[nH]c23)no1 [Example 83] | < 1000 | > 98
2 | COc1ccc(C(C)=O)c2[nH]cc(C(=O)C(=O)N3CCN(C(=O)c4ccccc4)CC3)c12 [Example 119] | < 1000 | 
3 | O=C(C(=O)N1CCN(C(=O)c2ccccc2)CC1)c1c[nH]c2c(-c3ccc(Cl)s3)ccc(F)c12 [Example 16] | < 1000 | > 98
4 | O=C(C(=O)N1CCN(C(=O)c2ccccc2)CC1)c1c[nH]c2c(C3=NCCN3)ccc(F)c12 [Example 163] | < 1000 | 
5 | O=C(C(=O)N1CCN(C(=O)c2ccccc2)CC1)c1c[nH]c2c(-c3noc(C(Cl)(Cl)Cl)n3)ccc(F)c12 [Example 81] | < 1000 | 
6 | C[C@@H]1CN(C(=O)c2ccccc2)CCN1C(=O)C(=O)c1c[nH]c2c(-c3noc(N)n3)ccc(F)c12 [Example 155] | < 1000 | 
7 | O=C(C(=O)N1CCN(C(=O)c2ccccc2)CC1)c1c[nH]c2c(-n3cncn3)ccc(F)c12 [Example 118] | < 1000 | 
8 | O=C(Nc1nn[nH]n1)c1ccc(F)c2c(C(=O)C(=O)N3CCN(C(=O)c4ccccc4)CC3)c[nH]c12 [Example 54] | < 1000 | > 98
9 | O=C(C(=O)N1CCN(C(=O)c2ccccc2)CC1)c1c[nH]c2c(-c3cncnc3)ccc(F)c12 [Example 9] | < 1000 | > 98
10 | CNC(=O)c1ccc(OC)c2c(C(=O)C(=O)N3CCN(C(=O)c4ccccc4)CC3)c[nH]c12 [Example 125] | < 1000 | 
11 | NNC(=O)c1ccc(F)c2c(C(=O)C(=O)N3CCN(C(=O)c4ccccc4)CC3)c[nH]c12 [Example 92] | < 1000 | 
12 | COc1ccc(-c2ccc(F)c3c(C(=O)C(=O)N4CCN(C(=O)c5ccccc5)CC4)c[nH]c23)cc1 [Example 4] | < 1000 | > 98
13 | CCN(CC)CCNC(=O)c1cccc2c(C(=O)C(=O)N3CCN(C(=O)c4ccccc4)C[C@H]3C)c[nH]c12 [Example 66] | < 1000 | 98
14 | CNC(=O)c1cccc2c(C(=O)C(=O)N3CCN(C(=O)c4ccccc4)C[C@H]3C)c[nH]c12 [Example 64] | < 1000 | > 98
15 | C[C@@H]1CN(C(=O)c2ccccc2)CCN1C(=O)C(=O)c1c[nH]c2c(-c3noc(C4CC4)n3)ccc(F)c12 [Example 179] | < 1000 | 
16 | COC(=O)c1nc(-c2ccc(F)c3c(C(=O)C(=O)N4CCN(C(=O)c5ccccc5)C[C@H]4C)c[nH]c23)no1 [Example 182] | < 1000 | 
17 | CC(C)(C)OC(=O)N1C=NNC(c2ccc(F)c3c(C(=O)C(=O)N4CCN(C(=O)c5ccccc5)CC4)c[nH]c23)=N1 [Example 132] | < 1000 | 
18 | COCCNC(=O)c1ccc(F)c2c(C(=O)C(=O)N3CCN(C(=O)c4ccccc4)CC3)c[nH]c12 [Example 152] | < 1000 | 
19 | C[C@@H]1CN(C(=O)c2ccccc2)CCN1C(=O)C(=O)c1c[nH]c2c(-c3noc(C(F)(F)F)n3)ccc(F)c12 [Example 180] | < 1000 | 
20 | O=C(C(=O)N1CCN(C(=O)c2ccccc2)CC1)c1c[nH]c2c(-n3ccnc3)ccc(F)c12 [Example 117] | < 1000 | 
21 | O=C(NCc1ccccc1)c1ccc(F)c2c(C(=O)C(=O)N3CCN(C(=O)c4ccccc4)CC3)c[nH]c12 [Example 45] | < 1000 | > 98

Row | SMILES | EC50 [nM] | inhibition at 10 µM [%]
22 | O=C(C(=O)N1CCN(C(=O)c2ccccc2)CC1)c1c[nH]c2c(-c3ccccc3)ccc(F)c12 [Example 1] | < 1000 | > 98
23 | O=C(C(=O)N1CCN(C(=O)c2ccccc2)CC1)c1c[nH]c2c(-c3n[nH]c(CCl)n3)ccc(F)c12 [Example 194] | < 1000 | 
24 | CNC(=O)Cn1nnc(-c2ccc(F)c3c(C(=O)C(=O)N4CCN(C(=O)c5ccccc5)CC4)c[nH]c23)n1 [Example 71] | < 1000 | > 98
25 | C[C@@H]1CN(C(=O)c2ccccc2)CCN1C(=O)C(=O)c1c[nH]c2c(C(=O)NCCN3CCOCC3)ccc(F)c12 [Example 177] | < 1000 | 
26 | CNC(=O)c1cc(-c2ccc(F)c3c(C(=O)C(=O)N4CCN(C(=O)c5ccccc5)CC4)c[nH]c23)[nH]n1 [Example 89] | < 1000 | 
27 | O=C(C(=O)N1CCN(C(=O)c2ccccc2)CC1)c1c[nH]c2c(C(=O)NS(=O)(=O)c3ccccc3)cccc12 [Example 62] | 1000 to 5000 | 74
28 | Cc1cc(NC(=O)c2ccc(F)c3c(C(=O)C(=O)N4CCN(C(=O)c5ccccc5)CC4)c[nH]c23)on1 [Example 37] | < 1000 | > 98
29 | C[C@@H]1CN(C(=O)c2ccccc2)CCN1C(=O)C(=O)c1c[nH]c2c(-c3noc(NC4CCC4)n3)ccc(F)c12 [Example 161] | < 1000 | 
30 | N/C(=N\O)c1ccc(F)c2c(C(=O)C(=O)N3CCN(C(=O)c4ccccn4)CC3)c[nH]c12 [Example 183] | < 1000 | 
31 | O=C(C(=O)N1CCN(C(=O)c2ccccn2)CC1)c1c[nH]c2c(-c3nn[nH]n3)ccc(F)c12 [Example 32] | < 1000 | > 98
32 | O=C(C(=O)N1CCN(C(=O)c2ccccc2)CC1)c1c[nH]c2c(-c3nc4ncccc4[nH]3)ccc(F)c12 [Example 165] | < 1000 | 
33 | O=C(C(=O)N1CCN(C(=O)c2ccccc2)CC1)c1c[nH]c2c(-c3nc[nH]n3)ccc(F)c12 [Example 111] | < 1000 | 
34 | O=C(Nc1ccccn1)c1ccc(F)c2c(C(=O)C(=O)N3CCN(C(=O)c4ccccc4)CC3)c[nH]c12 [Example 38] | < 1000 | > 98
35 | O=C(NCCc1c[nH]cn1)c1ccc(F)c2c(C(=O)C(=O)N3CCN(C(=O)c4ccccc4)CC3)c[nH]c12 [Example 49] | < 1000 | > 98
36 | O=C(C(=O)N1CCN(C(=O)c2ccccc2)CC1)c1c[nH]c2c(-c3nnn(CCN4C(=O)c5ccccc5C4=O)n3)ccc(F)c12 [Example 113] | < 1000 | 
37 | O=C(C(=O)N1CCN(C(=O)c2ccccn2)CC1)c1c[nH]c2c(-c3noc(C(Cl)(Cl)Cl)n3)ccc(F)c12 [Example 188] | < 1000 | 
38 | O=C(C(=O)N1CCN(C(=O)c2ccccc2)CC1)c1c[nH]c2c(-c3cnc[nH]3)ccc(F)c12 [Example 85] | < 1000 | 
39 | Nc1nc(-c2ccc(F)c3c(C(=O)C(=O)N4CCN(C(=O)c5ccccn5)CC4)c[nH]c23)no1 [Example 189] | < 1000 | 
40 | N=C(Nc1cccnc1N)c1ccc(F)c2c(C(=O)C(=O)N3CCN(C(=O)c4ccccc4)CC3)c[nH]c12 [Example 166] | < 1000 | 
41 | Cn1nnc(-c2ccc(F)c3c(C(=O)C(=O)N4CCN(C(=O)c5ccccc5)CC4)c[nH]c23)n1 [Example 21] | < 1000 | > 98
42 | O=C(NS(=O)(=O)c1ccccc1)c1ccc(F)c2c(C(=O)C(=O)N3CCN(C(=O)c4ccccc4)CC3)c[nH]c12 [Example 40] | < 1000 | > 98

Row | SMILES | EC50 [nM] | inhibition at 10 µM [%]
43 | COc1ccc(/C=N/O)c2[nH]cc(C(=O)C(=O)N3CCN(C(=O)c4ccccc4)CC3)c12 [Example 124] | < 1000 | 
44 | N/C(=N\O)c1ccc(F)c2c(C(=O)C(=O)N3CCN(C(=O)c4ccccc4)CC3)c[nH]c12 [Example 27] | < 1000 | > 98
45 | C[C@@H]1CN(C(=O)c2ccccc2)CCN1C(=O)C(=O)c1c[nH]c2c(-c3ncon3)ccc(F)c12 [Example 181] | < 1000 | 
46 | O=C(C(=O)N1CCN(C(=O)c2ccccc2)CC1)c1c[nH]c2c(-c3ncco3)ccc(F)c12 [Example 73] | < 1000 | > 98
47 | O=C(C(=O)N1CCN(C(=O)c2ccccc2)CC1)c1c[nH]c2c(C(=O)Nc3nnn[nH]3)cccc12 [Example 63] | < 1000 | 96
48 | CC(C)(C)OC(=O)NNC(=O)c1ccc(F)c2c(C(=O)C(=O)N3CCN(C(=O)c4ccccc4)CC3)c[nH]c12 [Example 91] | < 1000 | 
49 | CC(C)NC(=O)NNC(=O)c1ccc(F)c2c(C(=O)C(=O)N3CCN(C(=O)c4ccccc4)CC3)c[nH]c12 [Example 134] | < 1000 | 
50 | N=C(NC1CC1)c1ccc(F)c2c(C(=O)C(=O)N3CCN(C(=O)c4ccccc4)CC3)c[nH]c12 [Example 75] | < 1000 | > 98
51 | C[C@@H]1CN(C(=O)c2ccccn2)CCN1C(=O)C(=O)c1c[nH]c2c(-c3noc(N)n3)ccc(F)c12 [Example 190] | < 1000 | 
52 | CCN(CC)C(=O)COC(=O)c1cc(-c2ccc(F)c3c(C(=O)C(=O)N4CCN(C(=O)c5ccccc5)CC4)c[nH]c23)n[nH]1 [Example 120] | < 1000 | 
53 | C[C@@H]1CN(C(=O)c2ccccn2)CCN1C(=O)C(=O)c1c[nH]c2c(-c3ncon3)ccc(F)c12 [Example 192] | < 1000 | 
54 | COc1ccc(-c2ccccn2)c2[nH]cc(C(=O)C(=O)N3CCN(C(=O)c4ccccc4)CC3)c12 [Example 7] | < 1000 | > 98
55 | CNC(=O)c1c[nH]c(-c2ccc(F)c3c(C(=O)C(=O)N4CCN(C(=O)c5ccccc5)CC4)c[nH]c23)n1 [Example 147] | < 1000 | 
56 | CNC(=O)Cn1cnc(-c2ccc(F)c3c(C(=O)C(=O)N4CCN(C(=O)c5ccccc5)CC4)c[nH]c23)n1 [Example 145] | < 1000 | 
57 | O=C(O)c1cc(-c2ccc(F)c3c(C(=O)C(=O)N4CCN(C(=O)c5ccccc5)CC4)c[nH]c23)[nH]n1 [Example 88] | < 1000 | 
58 | CCCNC(=O)NNC(=O)c1ccc(F)c2c(C(=O)C(=O)N3CCN(C(=O)c4ccccc4)CC3)c[nH]c12 [Example 135] | < 1000 | 
59 | O=C(O)CO/N=C/c1ccc(F)c2c(C(=O)C(=O)N3CCN(C(=O)c4ccccc4)CC3)c[nH]c12 [Example 31] | < 1000 | > 98
60 | CCN(CC)CCn1nnc(-c2ccc(F)c3c(C(=O)C(=O)N4CCN(C(=O)c5ccccc5)CC4)c[nH]c23)n1 [Example 114] | < 1000 | 
61 | N=C(NN)c1ccc(F)c2c(C(=O)C(=O)N3CCN(C(=O)c4ccccc4)CC3)c[nH]c12 [Example 77] |  | > 98
62 | O=C(C(=O)N1CCN(C(=O)c2ccccc2)CC1)c1c[nH]c2c(-c3cccnc3)ccc(F)c12 [Example 6] | < 1000 | > 98
63 | O=C(C(=O)N1CCN(C(=O)c2ccccc2)CC1)c1c[nH]c2c(-n3cccn3)ccc(F)c12 [Example 116] | < 1000 | 
